Assay results taken from patent US10316017B2, “COT modulators and methods of use thereof” (Gilead Sciences, Inc., priority 2015, dated 2019).
Read-outs that look alike come from different tables or passages of the source.

How the values were obtained:
[1] = tested on: TNFα production in LPS-stimulated human monocytes; experiment: Cot Monocyte TNFα Cell Based Assay; conditions: Homo sapiens, Monocyte, read-out: EC50 TNF
How it was run: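 TR-FRET read-out of total secreted TNFα, normalized as % control (unstimulated = 0%, LPS-stimulated = 100%). Cells (5,000/well) were exposed to compound 1 h at 37 °C, then to 50 pg/ml LPS for a further 4 h.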

[2] = biological target: T1, human Cot catalytic domain (30-397 amino acids) (Homo sapiens, UniProt P41279); experiment: High Throughput Cot Biochemical Assay (KinEASE TR-FRET); conditions: read-out: IC50 HTRF
T1 construct: Purified recombinant human Cot catalytic domain (30-397 amino acids) was purchased from Cama Biosciences; purchased Cama Biosciences (so in the source)
How it was run: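 TR-FRET readout: Eu-labeled phospho-specific antibody binds XL665-tagged STK3 peptide after phosphorylation by Cot (aa 30-397, 5 nM). Conditions: 400 μM ATP, 1 μM peptide, MOPS pH 7.0 buffer with MgOAc, DTT, BSA, NP-40, glycerol; 0.1% DMSO.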

[3] = LPS-stimulated human monocytes, TNFα TR-FRET
[4] = Cot KinEASE TR-FRET, 400 μM ATP
[5] = TNFα in LPS-stimulated human monocytes
[6] = Cot KinEASE TR-FRET (HTRF) biochemical assay, 400 μM ATP
[7] = Cot biochemical HTRF (KinEASE TR-FRET) assay

T1 sequence (P41279 30-397): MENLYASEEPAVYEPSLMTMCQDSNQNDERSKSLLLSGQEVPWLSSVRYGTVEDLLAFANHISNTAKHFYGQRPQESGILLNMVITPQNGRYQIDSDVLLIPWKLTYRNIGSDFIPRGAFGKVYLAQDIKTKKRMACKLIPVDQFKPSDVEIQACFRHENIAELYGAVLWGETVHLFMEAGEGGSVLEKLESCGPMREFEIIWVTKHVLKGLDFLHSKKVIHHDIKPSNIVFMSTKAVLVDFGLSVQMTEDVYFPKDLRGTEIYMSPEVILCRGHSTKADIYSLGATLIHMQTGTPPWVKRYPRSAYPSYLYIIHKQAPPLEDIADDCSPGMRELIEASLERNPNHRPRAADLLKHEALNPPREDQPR

| EC50 [1, 3] | IC50 [2, 4] | EC50 [1, 5] | IC50 [2, 6] | IC50 [2, 7] | SMILES |
| --- | --- | --- | --- | --- | --- |
| 272 nM | 2 nM | – | – | – | Cc1c([C@H](Nc2cc(Cl)c3ncc(C#N)c(NCC(C)(C)C)c3c2)c2cn(C3(C(F)F)CC3)nn2)cccc1-n1cnnc1 [Example 1070, (S)-8-chloro-6-(((1-(1-(difluoromethyl)cyclopropyl)-1H-1,2,3-triazol-4-yl)(2-methyl-3-(4H-1,2,4-triazol-4-yl)phenyl)methyl)amino)-4-(neopentylamino)quinoline-3-carbonitrile] |
| 477 nM | 16 nM | – | – | – | Cc1c(-c2ccn(C)n2)cccc1[C@H](Nc1cc(Cl)c2ncc(C#N)c(NCC(C)(C)C)c2c1)c1cn(C2(C(F)(F)F)CC2)nn1 [Example 1162, (S)-8-chloro-6-(((2-methyl-3-(1-methyl-1H-pyrazol-3-yl)phenyl) (1-(1-(trifluoromethyl)cyclopropyl)-1H-1,2,3-triazol-4-yl)methyl)amino)-4-(neopentylamino)quinoline-3-carbonitrile] |
| 136 nM | 34 nM | – | – | – | CC(C)(C)CNc1c(C#N)cnc2c(Cl)cc(N[C@@H](c3ccc(F)cc3)c3cn(C4(c5ccccn5)CC4)nn3)cc12 [Example 991, (S)-8-chloro-6-(((4-fluorophenyl)(1-(1-(pyridin-2-yl)cyclopropyl)-1H-1,2,3-triazol-4-yl)methyl)amino)-4-(neopentylamino)quinoline-3-carbonitrile] |
| – | – | 1770 nM | – | 41 nM | CC(C)(C)N1CCC(n2cc([C@@H](Nc3cc(Cl)c4ncc(C#N)c(Nc5ccc(F)cc5)c4c3)c3ccc(Cl)cc3)nn2)CC1 [Example 766, (S)-6-(((1-(1-(tert-butyl)piperidin-4-yl)-1H-1,2,3-triazol-4-yl)(4-chlorophenyl)methyl)amino)-8-chloro-4-((4-fluorophenyl)amino)quinoline-3-carbonitrile] |
| 148 nM | 7 nM | – | – | – | CC(C)(C)CNc1c(C#N)cnc2c(C#N)cc(N[C@H](c3cn(C4(C(F)F)CC4)nn3)c3cccc(C#N)c3Cl)cc12 [Example 1080, (S)-6-(((2-chloro-3-cyanophenyl)(1-(1-(difluoromethyl)cyclopropyl)-1H-1,2,3-triazol-4-yl)methyl)amino)-4-(neopentylamino)quinoline-3,8-dicarbonitrile] |

More lines, now with the values behind:

| SMILES | EC50 [1, 3] | IC50 [2, 4] | EC50 [1, 5] | IC50 [2, 6] | IC50 [2, 7] |
| --- | --- | --- | --- | --- | --- |
| [2H][C@](Nc1cc(Cl)c2ncc(C#N)c(NC3(C)COC3)c2c1)(c1ccc(F)cc1)c1cn(C2CC2)nn1 [Example 214, (S)-8-chloro-6-(((1-cyclopropyl-1H-1,2,3-triazol-4-yl)(4-fluorophenyl)methyl-d)amino)-4-((3-methyloxetan-3-yl)amino)quinoline-3-carbonitrile] | – | – | 4220 nM | 151 nM | – |
| [2H][C@](Nc1cc(Cl)c2ncc(C#N)c(N[C@H](CCC#N)c3ccccc3)c2c1)(c1cn(C2CC2)nn1)c1ccccc1Cl [Example 89, 8-chloro-6-(((2-chlorophenyl) (1-cyclopropyl-1H-1,2,3-triazol-4-yl)methyl-d)amino)-4-(((R)-3-cyano-1-phenylpropyl)amino) quinoline-3-carbonitrile] | – | – | 38 nM | 2 nM | – |
| N#Cc1cnc2c(Cl)cc(N[C@@H](c3ccccc3)c3cn(CC(=O)N4CCOCC4)nn3)cc2c1Nc1ccc(F)c(Cl)c1 [Example 746, (S)-8-chloro-4-((3-chloro-4-fluorophenyl)amino)-6-(((1-(2-morpholino-2-oxoethyl)-1H-1,2,3-triazol-4-yl)(phenyl)methyl)amino) quinoline-3-carbonitrile] | – | – | 349 nM | – | 29 nM |
| [2H]C(Nc1cc(Cl)c2ncc(C#N)c(NCC(C)(C)C)c2c1)(c1cn(C2(C)CC2)nn1)c1ccccc1Cl (stereo not shown) [Example 107, 8-chloro-6-(((2-chlorophenyl)(1-(1-methylcyclopropyl)-1H-1,2,3-triazol-4-yl)methyl-d)amino)-4-(neopentylamino) quinoline-3-carbonitrile] | – | – | 272 nM | 14 nM | – |
| [2H][C@@](Nc1cc(Cl)c2ncc(C#N)c(NCC(C)(C)C)c2c1)(c1cn(CC2(O)COC2)nn1)c1ccccc1Cl [Example 104, 8-chloro-6-(((2-chlorophenyl) (1-((3-hydroxyoxetan-3-yl)methyl)-1H-1,2,3-triazol-4-yl)methyl-d)amino)-4-(neopentylamino) quinoline-3-carbonitrile] | – | – | 584 nM | 23 nM | – |
| N#Cc1cnc2c(Cl)cc(N[C@@H](c3cccc(CN4CC(F)(F)C4)c3)c3c[nH]nn3)cc2c1Nc1ccc(Cl)c(Cl)c1F [Example 518, (S)-8-chloro-4-((3,4-dichloro-2-fluorophenyl)amino)-6-(((3-((3,3-difluoroazetidin-1-yl)methyl)phenyl)(1H-1,2,3-triazol-4-yl)methyl)amino) quinoline-3-carbonitrile] | – | – | 570 nM | – | 52 nM |
| CC(C)(C)N1CCC(n2cc([C@@H](Nc3cc(Cl)c4ncc(C#N)c(NC5CCCC5)c4c3)c3ccc(Cl)cc3)nn2)CC1 [Example 714, (S)-6-(((1-(1-(tert-butyl)piperidin-4-yl)-1H-1,2,3-triazol-4-yl)(4-chlorophenyl)methyl)amino)-8-chloro-4-(cyclopentylamino)quinoline-3-carbonitrile] | – | – | 1700 nM | – | 131 nM |
| CC(C)(C)N1CCC(n2cc([C@@H](Nc3cc(Cl)c4ncc(C#N)c(Nc5ccc(F)c(C(F)(F)F)c5)c4c3)c3ccccc3)nn2)CC1 [Example 505, (S)-6-(((1-(1-(tert-butyl)piperidin-4-yl)-1H-1,2,3-triazol-4-yl)(phenyl)methyl)amino)-8-chloro-4-((4-fluoro-3-(trifluoromethyl)phenyl)amino)quinoline-3-carbonitrile] | – | – | 2620 nM | – | 240 nM |
| C[C@@H](Nc1c(C#N)cnc2c(Cl)cc(N[C@@H](c3ccccc3)c3c[nH]nn3)cc12)c1ccccc1 [Example 656, 8-chloro-6-(((S)-phenyl(1H-1,2,3-triazol-4-yl)methyl)amino)-4-(((R)-1-phenylethyl)amino) quinoline-3-carbonitrile] | – | – | 1820 nM | – | 39 nM |
| CC(C)(C)N1CCC(n2cc([C@@H](Nc3cc(Cl)c4ncc(C#N)c(Nc5c(F)ccc(Cl)c5F)c4c3)c3ccc(Cl)cc3)nn2)CC1 [Example 694, (S)-6-(((1-(1-(tert-butyl)piperidin-4-yl)-1H-1,2,3-triazol-4-yl)(4-chlorophenyl)methyl)amino)-8-chloro-4-((3-chloro-2,6-difluorophenyl)amino)quinoline-3-carbonitrile] | – | – | 843 nM | – | 20 nM |
| N#Cc1cnc2c(Cl)cc(N[C@@H](c3ccccc3)c3cn([C@@H]4CCNC[C@H]4F)nn3)cc2c1Nc1ccc(F)c(Cl)c1 [Example 744, 8-chloro-4-((3-chloro-4-fluorophenyl)amino)-6-(((S)-(1-((3R,4R)-3-fluoropiperidin-4-yl)-1H-1,2,3-triazol-4-yl)(phenyl)methyl)amino) quinoline-3-carbonitrile] | – | – | 363 nM | – | 13 nM |
| CC(C)(C)N1CCC(n2cc([C@@H](Nc3cc(Cl)c4ncc(C#N)c(Nc5ccc(F)c(Cl)c5)c4c3)c3cccc(C(=O)N4CCCCC4)c3)nn2)CC1 [Example 676, (S)-6-(((1-(1-(tert-butyl)piperidin-4-yl)-1H-1,2,3-triazol-4-yl)(3-(piperidine-1-carbonyl)phenyl)methyl)amino)-8-chloro-4-((3-chloro-4-fluorophenyl)amino)quinoline-3-carbonitrile] | – | – | 434 nM | – | 6 nM |
